Laboratory results from patent US7405235B2, “Transcription factor modulating compounds and methods of use thereof” (Paratek Pharmaceuticals, Inc., priority 2001, dated 2008).

Target: MarA (Escherichia coli, UniProt P0ACH5)
Test: MarA-activated selective marker (ccdB) cell survival assay, Example 2
Type: cell-based
Parameters: key: * indicates good inhibition of MarA; ** indicates very good inhibition of MarA
Details: inhibition of MarA: cell survival under conditions of MarA expression (ccdB under MarA-activated promoter)
Text: In the absence of Mar A, the expression of the selective marker would be silent. For example, in the case of regulation of the cytotoxic gene ccdB, the gene would be silent and the cells would survive. Synthesis of MarA from an inducible plasmid in a suitable host would result in the activation of the MarA responsive activatable promoter and expression of the selective marker. In the case of ccdB, the gene would be expressed and result in cell death. Compounds that inhibit MarA would be identified as those that permit cell survival under conditions of MarA expression.
In the absence of MarA, the expression of the selective marker is silent and cells survive. Synthesis of MarA from an inducible plasmid in a bacterial or yeast cell leads to the activation of the inaA promoter, expression of ccdB, and subsequently results in cell death. Compounds that inhibit MarA are those that permit cell survival under conditions of MarA expression. In Table 4, * indicates good inhibition of MarA and ** indicates very good inhibition of MarA.

Chain of MarA (P0ACH5 whole entry, looked up): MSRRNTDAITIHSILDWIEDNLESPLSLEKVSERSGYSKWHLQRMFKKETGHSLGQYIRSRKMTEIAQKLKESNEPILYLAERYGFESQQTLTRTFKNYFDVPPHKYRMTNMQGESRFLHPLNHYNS

Row | Structure (SMILES) | MarA inhibition class
1 | CCOC(=O)C1=C(C)N=c2sc(=Cc3ccc(-c4cccc(C(=O)O)c4)o3)c(=O)n2C1c1ccc(N(C)C)cc1 (centres unmarked) [W, 2-[5-(3-Carboxy-phenyl)-furan-2-ylmethylene]-5-(4-dimethylamino-phenyl)-7-methyl-3-oxo-2,3-dihydro-5H-thiazolo[3,2-a]pyrimidine-6-carboxylicacid ethyl ester] | **
2 | CCCCSc1nnc2c(n1)OC(c1ccc(OCC)cc1)Nc1ccccc1-2 (centres unmarked) [J, 3-Butylsulfanyl-6-(4-ethoxy-phenyl)-6,7-dihydro-5-oxa-1,2,4,7-tetraaza-dibenzo[a,c]cycloheptene] | *
